{"source": "patent US5418219A", "about": "“Pharmaceutical composition for treatment of adult respiratory distress syndrome containing human ANP” (Suntory Limited, priority 1992, dated 1995)", "key": {"[1]": {"test_system": "pigs in which lung injury was induced", "assay": "Partial pressure of oxygen in arterial blood (PaO2) in pigs with HCl-induced pulmonary injury", "format": "in vivo, New Yorkshire male pigs", "conditions": "pig", "method": "(§1) A Teflon catheter was inserted into the femoral artery of each animal for measuring blood pressure, blood ANP level and blood gas. At the same time, a pulmonary arterial cathether was inserted through the right cephalic vein for recording the changes in pulmonary arterial pressure. Pulmonary arterial pressure (PAP) and right atrial pressure (RAP) were measured with thermistor-tipped pressure transducers. Pulmonary capillary wedge pressure (PCWP) was measured with a baloon-fitted catheter. Cardiac output (CO) was calculated from the average of three measurements by the thermodilution method. Body temperature was measured with a thermistor inserted into the pulmonary artery and maintained at 37°-38° C. with the aid of a heat jacket. Electrocardiograms were induced from the four limbs and the ECC waveform and the number of heart beats were measured."}, "[2]": {"test_system": "pigs in which lung injury was induced", "assay": "Pulmonary arterial pressure (PAP) in pigs with HCl-induced pulmonary injury", "format": "in vivo, New Yorkshire male pigs", "conditions": "pig", "method": "as §1"}, "[3]": {"test_system": "pigs in which lung injury was induced", "assay": "Blood pressure (BP) in pigs with HCl-induced pulmonary injury", "format": "in vivo, New Yorkshire male pigs", "conditions": "pig", "method": "as §1"}, "[4]": {"test_system": "pigs in which lung injury was induced", "assay": "Urine excretion in pigs with HCl-induced pulmonary injury", "conditions": "pig, ANP versus furosemide", "experimental": "New Yorkshire male pigs weighing 16-24 kg were used in all experiments. The animals were allowed neither food nor water for 44 hr before test. They were initially anesthetized by intravenous injection of pentobarbital sodium (2.0 mg/kg) and pancuronium bromide (0.1 mg/kg) and, thereafter, the anesthetization was maintained by sustained intravenous injection of pentobarbital sodium (0.5 mg/kg/hr) and pancuronium bromide (0.1 mg/kg/hr). The animals were placed in prone position and ventilated at a frequency of 17 breaths/min with a tidal volume of 10-15 ml/kg, with the partial pressure of oxygen in arterial blood (PaO2) being held at 35-45 Torr. Physiological saline (5 ml/kg) was initially infused by intravenous injection, followed by sustained intravenous injection for 30 min at a rate of 4 ml/kg/hr.\nA cannula was inserted into the bladder of each animal and urine samples were collected at 30-min intervals. Blood sampling and hemodynamic measurements were also conducted at 30-min Intervals but intermediate between collections of urine samples. Blood samples for assaying blood α-hANP levels were collected into chilled glass tubes each containing EDTA (0.1 mg/ml) and aprotinin (500 KIU/ml). […] Plasma α-hANP levels were measured by the RIA method using a rabbit anti α-hANP antibody. […]"}, "[5]": {"conditions": "baseline (before HCl aspiration)"}}, "data": [{"smiles": "NS(=O)(=O)c1cc(C(=O)O)c(NCc2ccco2)cc1Cl", "note": "[furosemide]", "values": [{"measurement": "compensation of the decrease in PaO2 induced by HCl aspiration", "setting": "[1]", "value": "could be compensated"}, {"measurement": "PaO2", "setting": "[1]; 60 min after HCl aspiration (before drug administration)", "value": "120.5±33.1", "unit": "mmHg"}, {"measurement": "PaO2", "setting": "[1]; 60 min after administration (180 min after HCl aspiration), control 171.1", "value": "287.9±78.2", "unit": "mmHg"}, {"measurement": "PaO2", "setting": "[1]; [5]", "value": "490.3±29.0", "unit": "mmHg"}, {"measurement": "PAP", "setting": "[2]; after 60 min of administration (120 min after HCl aspiration), control 18.9±2.4", "value": "20.4±2.3", "unit": "mmHg"}, {"measurement": "PAP", "setting": "[2]; [5]", "value": "12.7±1.9", "unit": "mmHg"}, {"measurement": "BP lowering action / changes in BP", "setting": "[3]", "value": "No significant changes"}, {"measurement": "intensity of diuretic action", "setting": "[4]", "value": "comparable to each other"}]}]}
